Tested on: HBV cccDNA
Assay: Decay kinetics of established cccDNA and HBsAg secretion under treatment from 3 dpi to 20 dpi
Assay type: cell-based, HBV (Genotype D)
Details: HepG2-hNTCP, treatment from 3 dpi through 20 dpi
Experimental: (5A) HBV infection and treatment schedule. On day 0 HepG2-hNTCP cells were infected with HBV at moi of 1000 Geq/cell, incubated for 24 hr, and media was replaced. On day three the cells were harvested or treated with DMSO, ETV (500 nM), F7 (10 μM), poly-U/UC (100 ng/ml), or with ETC combination with F7 or poly-U/UC, PAMP. Cells were harvested at the indicated points over a 20-day time course. (5B), (5C) DNA was isolated by Hirt extract and subjected to Southern blot analysis using an HBV-specific DNA probe. Percentage values below each lane indicate the relative amount of cccDNA compared to day three control prior to each treatment. The positions of mass markers are indicated. (5D) cccDNA levels were measured by RT-qPCR. Relative cccDNA values to mitochondrial DNA (MT-CO3) are shown. Statistical significance was determined using Student's t test. Data are presented as mean standard deviation (SD), *P<0.01, **P<0.005, ***P<0.001 and ns=non-significant (E) Half-life of cccDNA from RT-qPCR analyses was estimated from the simultaneous fitting of three replicates under each treatment strategy. C(t) is the % values of cccDNA at time ‘t’ post-treatment, C(0) is the % values of cccDNA at the start of the treatment. (5F) HBsAg across the time course for each treatment series. Statistical significance as determined using Student's t test. Data are presented as mean standard deviations (SD), **P<0.005, and ns=non-significant.
ETV is a nucleoside analog that prevents the viral reverse transcription and replication of new synthesized HBV DNAs, thereby preventing the replenishment of cccDNA by de novo formation. ETV was applied to HBV-infected cultures at a 100-fold IC50 (Langley, D. R., et al. (2007). Inhibition of Hepatitis B Virus Polymerase by Entecavir. Journal of virology 81, 3992-4001) thereby allowing for the measurement of cccDNA half-life under conditions in which levels are sustained only from the initial cccDNA pool. Cells were then harvested over a treatment time course, and DNA extracts were analyzed by Southern blot and qPCR assay. […] J Hepatol 69, 1231-1241). […] Enhanced cccDNA decay kinetics by F7 treatment was also confirmed by RT-PCR analysis (FIG. 5D). […] Thus, F7 and poly-U/UC PAMP impart the therapeutic decay of established cccDNA.
Reverse transcription quantitative real time qPCR (RT-qPCR) analysis: Total cellular RNAs were extracted from cells using TRIZOL reagent and the manufacturers protocol (Invitrogen). cDNA was synthesized from the purified RNA by both random and oligo (dT) priming using iScript select cDNA synthesis kit (Biorad, Inc.). For HBV cccDNA expression analysis, total DNA was extracted using the DNeasy kit (QIAGEN). For selective cccDNA PCR analysis, isolated DNAs were treated with 10 Units of T5 exonuclease (NEB) for 30 min in 10 μl of reaction volume in 37° C., followed by heat-inactivation at 95° C. for 5 min and 4-fold dilution with Nuclease-free water. For extra-cellular HBV DNA quantification, an external HBV plasmid standard was used to program the PCR (Ko, C., et al. (2018), supra).

## C=C1[C@H](CO)[C@@H](O)C[C@@H]1n1cnc2c(=O)[nH]c(N)nc21 [ETV, Entecavir, reference compound]
  production and secretion of HBsAg: Neither ETV nor X RNA treatment of cells had any effect
ETV 500 nM, F7 10 μM, poly-U/UC 100 ng/ml
  cccDNA levels over treatment time course (Southern blot, qPCR): stably maintained cccDNA levels over the time course

Source: US20220241314A1, “COMPOSITIONS AND METHODS FOR TREATMENT OF HEPATITIS B VIRUS INFECTION” (priority 2019, published 2022)
